Measured values as given in patent publication US11535607B2, “Isoindolines as HDAC inhibitors” (Valo Health, Inc., priority 2018, dated 2022).
Structures can show the parent of a compound that is named as a salt.

These molecules were tested against full-length human HDAC11 (Homo sapiens (Human), UniProt Q96DB2) (assay: Probe binding HDAC11 time resolved fluorescence (TRF) assay). Settings: Table 2, read-out: HDAC11 IC50 Range.
Sequence of full-length human HDAC11 (Q96DB2 whole entry): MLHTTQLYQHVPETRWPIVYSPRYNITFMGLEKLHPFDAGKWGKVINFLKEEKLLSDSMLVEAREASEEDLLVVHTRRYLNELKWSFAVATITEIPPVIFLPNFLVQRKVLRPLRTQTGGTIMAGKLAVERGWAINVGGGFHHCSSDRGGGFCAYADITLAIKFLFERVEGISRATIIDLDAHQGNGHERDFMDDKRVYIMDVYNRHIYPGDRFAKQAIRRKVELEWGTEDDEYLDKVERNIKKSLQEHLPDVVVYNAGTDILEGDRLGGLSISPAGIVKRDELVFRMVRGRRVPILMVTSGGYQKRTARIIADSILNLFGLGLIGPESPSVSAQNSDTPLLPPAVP
Procedure: The probe binding HDAC11 assay was performed using a time resolved fluorescence (TRF) assay format. Recombinant N-terminal GST tag full-length human HD AC 11 was expressed and purified from baculovirus in Sf9 insect cells (SignalChem, #H93-30G-1000). […] 4 μL of 2× probe and 2× anti-GST Terbium (Cisbio, #61GSTXLB) was added to assay plates followed by 4 μL of 2×HDAC11.
Data from HD AC 11 Assays were reported as percent inhibition (inh) compared with control wells based on the following equation: % inh=1−((FLU−AveLow)/(AveHigh−AveLow)) where FLU=measured time resolved fluorescence. AveLow=average time resolved fluorescence of no enzyme control (n=32). AveHigh=average time resolved fluorescence of DMSO control (n=32). IC50 values were determined by curve fitting of the standard 4 parameter logistic fitting algorithm included in the Activity Base software package: IDBS XE Designer Model205. Data is fitted using the Levenburg Marquardt algorithm.
With CC1(C)CCc2nc(N3Cc4cccc(C(=O)NO)c4C3)[nH]c2C1 [Compound 1-5, 2-(5,5-dimethyl-4,5,6,7-tetrahydro-1H-benzo[d]imidazol-2-yl)-N-hydroxyisoindoline-4-carboxamide hydrochloride] the IC50 was 500 to 1000 nM. O=C(NO)c1cccc2c1CC(c1ccc(C(F)(F)F)cc1)N2 (centres unmarked) [Compound 38-2, N-hydroxy-2-(4-(trifluoromethyl)phenyl)indoline-4-carboxamide] was tested, and the IC50 was > 1000 nM. Molecule CC1(C)c2cccc(C(=O)NO)c2CN1C(=O)Nc1cc2c(cn1)CCCC2 [Compound 31-1, N4-hydroxy-1,1-dimethyl-N2-(5,6,7,8-tetrahydroisoquinolin-3-yl)isoindoline-2,4-dicarboxamide] has an IC50 of 500 to 1000 nM. In the case of O=C(NO)c1cccc2c1CN(c1nc3ccccc3o1)C2=O [Compound 36-1, 2-(benzo[d]oxazol-2-yl)-N-hydroxy-1-oxoisoindoline-4-carboxamide], the IC50 is reported as > 1000 nM. For CC1(C)c2cccc(C(=O)NO)c2N[C@@H]1c1ccc(C(F)(F)F)cn1 [Compound 40-2, (S)—N-hydroxy-3,3-dimethyl-2-(5-(trifluoromethyl)pyridin-2-yl)indoline-7-carboxamide], the IC50 was < 500 nM. CC1(C)c2cccc(C(=O)NO)c2CN1C(=O)Nc1ccc(C(F)(F)F)nc1 [Compound 30-1, N4-hydroxy-1,1-dimethyl-N2-(6-(trifluoromethyl)pyridin-3-yl)isoindoline-2,4-dicarboxamide] gave an IC50 of 500 to 1000 nM. For O=C(NO)c1cccc2c1CN(c1cnc3cccnc3c1)C2 [Compound 8-1, N-hydroxy-2-(1,5-naphthyridin-3-yl)isoindoline-4-carboxamide], the IC50 was > 1000 nM. For O=C(NO)c1cccc2c1CN(c1nc3c([nH]1)C[C@H](C(F)(F)F)CC3)C2 (single isomer, unassigned) [Compound 2-1, hydrochloride], the IC50 was < 500 nM. CC1(C)c2cccc(C(=O)NO)c2CN1C(=O)Nc1cncc(C(F)(F)F)c1 [Compound 30-4, N4-hydroxy-1,1-dimethyl-N2-(5-(trifluoromethyl)pyridin-3-yl)isoindoline-2,4-dicarboxamide] was tested, and the IC50 was > 1000 nM. In the case of O=C(NO)c1cccc2c1N[C@@H](c1ccc(C(F)(F)F)cc1)C2 [Compound 39-1, (R)—N-hydroxy-2-(4-(trifluoromethyl)phenyl)indoline-7-carboxamide], the IC50 is reported as < 500 nM. With CC1(C)c2cccc(C(=O)NO)c2CN1C(=O)c1ccc(C(F)(F)F)cc1 [Compound 28-1, N-hydroxy-1,1-dimethyl-2-(4-(trifluoromethyl)benzoyl)isoindoline-4-carboxamide] the IC50 was > 1000 nM. In the case of O=C(NO)c1cccc2c1CN(c1ccc3ncccc3n1)C2 [Compound 7-3, N-hydroxy-2-(1,5-naphthyridin-2-yl)isoindoline-4-carboxamide], the IC50 is reported as > 1000 nM. For COc1ccc(CN2Cc3cccc(C(=O)NO)c3C2)cc1 [Compound 41-2, N-hydroxy-2-(4-methoxybenzyl)isoindoline-4-carboxamide], the IC50 was > 1000 nM. In the case of CCC(C(=O)N1Cc2cccc(C(=O)NO)c2C1)c1ccc(OC)cc1 (centres unmarked) [Compound 28-3, N-hydroxy-2-(2-(4-methoxyphenyl)butanoyl)isoindoline-4-carboxamide], the IC50 is reported as > 1000 nM. CC1(C)c2cccc(C(=O)NO)c2CN1c1nc2ccccc2o1 [Compound 25-1, 2-(benzo[d]oxazol-2-yl)-N-hydroxy-1,1-dimethylisoindoline-4-carboxamide] was tested, and the IC50 was < 500 nM. CC1(C)c2ccnc(C(=O)NO)c2CN1c1ccc(C(F)(F)F)cn1 [Compound 33-1, N-hydroxy-1,1-dimethyl-2-(5-(trifluoromethyl)pyridin-2-yl)-2,3-dihydro-1H-pyrrolo [3,4-c]pyridine-4-carboxamide] was tested, and the IC50 was 500 to 1000 nM. With O=C(NO)c1cccc2c1CN(c1nc3cc(C(F)(F)F)ccc3s1)C2 [Compound 11-1, N-hydroxy-2-(5-(trifluoromethyl)benzo[d]thiazol-2-yl)isoindoline-4-carboxamide] the IC50 was < 500 nM. With O=C(NO)c1cccc2c1CN(c1cccc(C(F)(F)F)n1)C2 [Compound 45-2, N-hydroxy-2-(6-(trifluoromethyl)pyridin-2-yl)isoindoline-4-carboxamide] the IC50 was > 1000 nM. For O=C(NO)c1cccc2c1CN(c1nc3ccncc3[nH]1)C2 [Compound 3-1, N-hydroxy-2-(3H-imidazo[4,5-c]pyridin-2-yl)isoindoline-4-carboxamide], the IC50 was > 1000 nM. O=C(NO)c1cccc2c1CN(c1ccccc1)C2 [Compound 42-1, N-hydroxy-2-phenylisoindoline-4-carboxamide] was tested, and the IC50 was > 1000 nM. CC1(C)c2cccc(C(=O)NO)c2CN1C(=O)Nc1ccc(C(F)(F)F)cn1 [Compound 30-2, N4-hydroxy-1,1-dimethyl-N2-(5-(trifluoromethyl)pyridin-2-yl)isoindoline-2,4-dicarboxamide] was tested, and the IC50 was > 1000 nM. For CC1(C)c2cccc(C(=O)NO)c2CN1c1nc2nc(C(F)(F)F)ccc2o1 [Compound 26-1, N-hydroxy-1,1-dimethyl-2-(5-(trifluoromethyl)oxazolo[4,5-b]pyridin-2-yl)isoindoline-4-carboxamide], the IC50 was < 500 nM. For CC1(C)c2cccc(C(=O)NO)c2CN1c1ccc2ccccc2n1 [Compound 22-5, N-hydroxy-1,1-dimethyl-2-(quinolin-2-yl)isoindoline-4-carboxamide], the IC50 was < 500 nM. In the case of O=C(NO)c1cccc2c1CN(c1nc3cc(C(F)(F)F)cc(-c4ccccc4)c3[nH]1)C2 [Compound 35-1, N-hydroxy-2-(7-phenyl-5-(trifluoromethyl)-1H-benzo[d]imidazol-2-yl)isoindoline-4-carboxamide], the IC50 is reported as 500 to 1000 nM. For COCCn1c(N2Cc3cccc(C(=O)NO)c3C2)nc2ccccc21 [Compound 1-7, N-hydroxy-2-(1-(2-methoxyethyl)-1H-benzo[d]imidazol-2-yl)isoindoline-4-carboxamide], the IC50 was > 1000 nM. With O=C(NO)c1cccc2c1CN(c1nc3ncccc3s1)C2 [Compound 10-1, N-hydroxy-2-(thiazolo[4,5-b]pyridin-2-yl)isoindoline-4-carboxamide] the IC50 was > 1000 nM. In the case of O=C(NO)c1cccc2cc(-c3cnc(C(F)(F)F)cn3)[nH]c12 [Compound 37-3, N-hydroxy-2-(5-(trifluoromethyl)pyrazin-2-yl)-1H-indole-7-carboxamide], the IC50 is reported as < 500 nM. With CC1(C)c2cccc(C(=O)NO)c2N[C@H]1c1ccc(C(F)(F)F)cc1 [Compound 40-5, (S)-N-hydroxy-3,3-dimethyl-2-(4-(trifluoromethyl)phenyl)indoline-7-carboxamide] the IC50 was 500 to 1000 nM. CC1(C)c2cccc(C(=O)NO)c2CN1c1cc(C#N)c(C(F)(F)F)cn1 [Compound 27-2, 2-(4-cyano-5-(trifluoromethyl)pyridin-2-yl)-N-hydroxy-1,1-dimethylisoindoline-4-carboxamide] was tested, and the IC50 was < 500 nM. In the case of CC1(C)c2cccc(C(=O)NO)c2CN1c1nc2ncccc2s1 [Compound 20-1, N-hydroxy-1,1-dimethyl-2-(thiazolo[4,5-b]pyridin-2-yl)isoindoline-4-carboxamide], the IC50 is reported as > 1000 nM. For O=C(NO)c1cccc2cc(-c3ccc(C(F)(F)F)cc3)[nH]c12 [Compound 37-1, N-hydroxy-2-(4-(trifluoromethyl)phenyl)-1H-indole-7-carboxamide], the IC50 was 500 to 1000 nM. In the case of CC1(C)c2cccc(C(=O)NO)c2CN1c1ccc2cc(C(F)(F)F)ccc2n1 [Compound 23-1, N-hydroxy-1,1-dimethyl-2-(6-(trifluoromethyl)quinolin-2-yl)isoindoline-4-carboxamide], the IC50 is reported as < 500 nM. CC1(C)c2cccc(C(=O)NO)c2CN1c1nc(C(F)(F)F)cs1 [Compound 22-9, N-hydroxy-1,1-dimethyl-2-(4-(trifluoromethyl)thiazol-2-yl)isoindoline-4-carboxamide] was tested, and the IC50 was > 1000 nM. For O=C(NO)c1cccc2c1CN(c1nc3c([nH]1)C[C@@H](C(F)(F)F)CC3)C2 (single isomer, unassigned) [Compound 2-2, hydrochloride], the IC50 was < 500 nM. CC1(C)c2cccc(C(=O)NO)c2N[C@H]1c1ccc(C(F)(F)F)cn1 [Compound 40-1, (R)—N-hydroxy-3,3-dimethyl-2-(5-(trifluoromethyl)pyridin-2-yl)indoline-7-carboxamide] was tested, and the IC50 was > 1000 nM. CC1(C)c2cccc(C(=O)NO)c2CN1c1ccc2ccc(C(F)(F)F)cc2n1 [Compound 23-2, N-hydroxy-1,1-dimethyl-2-(7-(trifluoromethyl)quinolin-2-yl)isoindoline-4-carboxamide] gave an IC50 of 500 to 1000 nM. In the case of O=C(NO)c1cccc2c1CN(C1=NC(O)(C(F)(F)F)C(c3ccccc3)=N1)C2 (centres unmarked) [Compound 44-1, N-hydroxy-2-(4-hydroxy-5-phenyl-4-(trifluoromethyl)-4H-imidazol-2-yl)isoindoline-4-carboxamide], the IC50 is reported as > 1000 nM. With COc1ccc(CN2Cc3c(C(=O)NO)cccc3C2(C)C)cc1 [Compound 32-1, N-hydroxy-2-(4-methoxybenzyl)-1,1-dimethylisoindoline-4-carboxamide hydrochloride] the IC50 was > 1000 nM. With CC1(C)c2cccc(C(=O)NO)c2N[C@@H]1c1cnc(C(F)(F)F)cn1 [Compound 40-4, (S)-N-hydroxy-3,3-dimethyl-2-(5-(trifluoromethyl)pyrazin-2-yl)indoline-7-carboxamide] the IC50 was > 1000 nM. For O=C(NO)c1cccc2c1CN(c1ncc3ccccc3n1)C2 [Compound 7-1, N-hydroxy-2-(quinazolin-2-yl)isoindoline-4-carboxamide], the IC50 was > 1000 nM. In the case of CC1(C)c2cccc(C(=O)NO)c2CN1C(=O)Nc1ccc(C(F)(F)F)cc1 [Compound 29-1, N4-hydroxy-1,1-dimethyl-N2-(4-(trifluoromethyl)phenyl)isoindoline-2,4-dicarboxamide], the IC50 is reported as < 500 nM.
